From patent publication US20230085307A1, “PYRIDAZINONE COMPOUND AND HERBICIDE” (NISSAN CHEMICAL CORPORATION, priority 2019, published 2023)

Tests used:
wild oat = assay: Test Example 4: herbicidal effect by soil treatment (Table 19, symbol I); format: in vivo, wild oat (Avena fatua)
Summary of the method: (§1)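 Soil-surface application: an emulsion agent diluted with water to the predetermined dose is sprayed uniformly over seeds lying under roughly 1.5 cm of sterilized diluvial soil. Boxes stay in a greenhouse at 25° C. to 30° C. Three weeks later, each species is graded on previously defined criteria.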

chickweed [1] = assay: Test Example 4: herbicidal effect by soil treatment (Table 19, symbol P); format: in vivo, common chickweed (Stellaria media)
Summary of the method: as §1

persian speedwell [2] = assay: Test Example 5: herbicidal effect by foliage application, plastic box (Table 20, symbol R); format: in vivo, Persian speedwell (Veronica persica); conditions: foliage application, three weeks after application
Summary of the method: (§2)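 Sow seeds spot-wise in sterilized diluvial soil; cover with ~1.5 cm soil. Grow 14 days in greenhouse, 25° C. to 30° C. Spray foliage with emulsion diluted to predetermined amount. Rate effect after 3 weeks.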

oval-leafed pondweed = assay: Test Example 1: herbicidal activity, application before weed generation under submerged conditions (Table 16, symbol C); format: in vivo, oval-leafed pondweed (Monochoria vaginalis)
Summary of the method: (§3)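 Submerged Wagner pots (alluvial soil, 4 cm water) sown with weed seeds and planted with 2.5-leaf rice seedlings; emulsifiable concentrate diluted in water applied to water surface on sowing day. Held in greenhouse at 25-30 °C; injury scored 0-5 by herbicidal rate after three weeks.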

Italian ryegrass [3] = assay: Test Example 5: herbicidal effect by foliage application, plastic box (Table 20, symbol K); format: in vivo, Italian ryegrass (Lolium multiflorum); conditions: foliage application, three weeks after application
Summary of the method: as §2

southern crabgrass [4] = assay: Test Example 4: herbicidal effect by soil treatment (Table 19, symbol F); format: in vivo, southern crabgrass (Digitaria ciliaris)
Summary of the method: as §1

barnyard grass = assay: Test Example 4: herbicidal effect by soil treatment (Table 19, symbol H); format: in vivo, barnyard grass (Echinochloa crus-galli)
Summary of the method: as §1

lambsquarters = assay: Test Example 4: herbicidal effect by soil treatment (Table 19, symbol O); format: in vivo, lambsquarters (Chenopodium album)
Summary of the method: as §1

Japanese bulrush [5] = assay: Test Example 2: herbicidal activity, application during weed generation under submerged conditions (Table 17, symbol B); format: in vivo, Japanese bulrush (Schoenoplectus juncoides); conditions: application during weed generation, submerged conditions
Summary of the method: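 3-wk visual-criteria score after one water-surface dose. Emulsion formulation, water-diluted to set rate; applied at 1–2 leaf stage; alluvial soil, 4 cm standing water; seeds co-sown; greenhouse 25–30° C.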

Italian ryegrass [6] = assay: Test Example 4: herbicidal effect by soil treatment (Table 19, symbol K); format: in vivo, Italian ryegrass (Lolium multiflorum)
Summary of the method: as §1

chickweed [7] = assay: Test Example 5: herbicidal effect by foliage application, plastic box (Table 20, symbol P); format: in vivo, common chickweed (Stellaria media); conditions: foliage application, three weeks after application
Summary of the method: as §2

blackgrass [8] = assay: Test Example 4: herbicidal effect by soil treatment (Table 19, symbol J); format: in vivo, blackgrass (Alopecurus myosuroides)
Summary of the method: as §1

persian speedwell [9] = assay: Test Example 4: herbicidal effect by soil treatment (Table 19, symbol R); format: in vivo, Persian speedwell (Veronica persica)
Summary of the method: as §1

blackgrass [10] = assay: Test Example 5: herbicidal effect by foliage application, plastic box (Table 20, symbol J); format: in vivo, blackgrass (Alopecurus myosuroides); conditions: foliage application, three weeks after application
Summary of the method: as §2

Japanese bulrush [11] = assay: Test Example 1: herbicidal activity, application before weed generation under submerged conditions (Table 16, symbol B); format: in vivo, Japanese bulrush (Schoenoplectus juncoides)
Summary of the method: as §3

southern crabgrass [12] = assay: Test Example 5: herbicidal effect by foliage application, plastic box (Table 20, symbol F); format: in vivo, southern crabgrass (Digitaria ciliaris); conditions: foliage application, three weeks after application
Summary of the method: as §2

rice flat sedge = assay: Test Example 3: herbicidal effect by foliage application, Wagner pot (Table 18, symbol E); format: in vivo, rice flat sedge (Cyperus iria)
Summary of the method: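 Plants were sown in alluvial soil held under 0.1–0.5 cm standing water and grown 14 days in a greenhouse at 25–30 °C. An emulsifiable formulation, water-diluted to the set dose, was then sprayed onto the foliage, and effects were scored three weeks later using previously defined criteria.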

[13] = amount of applied herbicide 320 g/ha
[14] = amount of applied herbicide 224 g/ha

| SMILES | I: wild oat, herbicidal effect grade (wild oat; [13]) | P: chickweed, herbicidal effect grade (chickweed [1]; [13]) | R: persian speedwell, herbicidal effect grade (persian speedwell [2]; 320 g/ha) | Herbicidal effect, C: oval-leafed pondweed (oval-leafed pondweed; [13]) | K: Italian ryegrass, herbicidal effect grade (Italian ryegrass [3]; 320 g/ha) | F: southern crabgrass, herbicidal effect grade (southern crabgrass [4]; [13]) | H: barnyard grass, herbicidal effect grade (barnyard grass; [13]) | O: lambsquarters, herbicidal effect grade (lambsquarters; [13]) | herbicidal effect rating, B: Japanese bulrush (Japanese bulrush [5]; AAH 320 g/ha) | K: Italian ryegrass, herbicidal effect grade (Italian ryegrass [6]; [13]) | P: chickweed, herbicidal effect grade (chickweed [7]; 320 g/ha) | J: blackgrass, herbicidal effect grade (blackgrass [8]; [13]) | R: persian speedwell, herbicidal effect grade (persian speedwell [9]; [13]) | J: blackgrass, herbicidal effect grade (blackgrass [10]; 320 g/ha) | Herbicidal effect, B: Japanese bulrush (Japanese bulrush [11]; [13]) | F: southern crabgrass, herbicidal effect grade (southern crabgrass [12]; 320 g/ha) | herbicidal effect on rice flat sedge (E) (rice flat sedge; 320 g/ha) | other results |
| --- | --- | --- | --- | --- | --- | --- | --- | --- | --- | --- | --- | --- | --- | --- | --- | --- | --- | --- |
| CCCC(=O)Oc1c(C)nn(C)c(=O)c1-c1c(-c2ccccc2OCC)sc2cc(Cl)ccc12 [3-040] | 0 (Herbicidal rate of 5% or less (almost no effect)) | 4 (Herbicidal rate of 70% or more and less than 90%) | 4 (Herbicidal rate of 70% or more and less than 90%) | 2 (Herbicidal rate of 20% or more and less than 40%) | 0 (Herbicidal rate of 5% or less (almost no effect)) | 1 (Herbicidal rate of 5% or more and less than 20%) | 0 (Herbicidal rate of 5% or less (almost no effect)) | 3 (Herbicidal rate of 40% or more and less than 70%) | 2 (Herbicidal rate of 20% or more and less than 40%) | 0 (Herbicidal rate of 5% or less (almost no effect)) | 5 (Herbicidal rate of 90% or more (almost completely withered)) | 0 (Herbicidal rate of 5% or less (almost no effect)) | 4 (Herbicidal rate of 70% or more and less than 90%) | 5 (Herbicidal rate of 90% or more (almost completely withered)) | 3 (Herbicidal rate of 40% or more and less than 70%) | 4 (Herbicidal rate of 70% or more and less than 90%) | 5 (Herbicidal rate of 90% or more (almost completely withered)) | – |
| COc1cc(F)ccc1-c1sc2cc(Cl)ccc2c1-c1c(O)c(C)nn(C)c1=O [3-043] | 0 (Herbicidal rate of 5% or less (almost no effect)) | 4 (Herbicidal rate of 70% or more and less than 90%) | 5 (Herbicidal rate of 90% or more (almost completely withered)) | 2 (Herbicidal rate of 20% or more and less than 40%) | 2 (Herbicidal rate of 20% or more and less than 40%) | 0 (Herbicidal rate of 5% or less (almost no effect)) | 4 (Herbicidal rate of 70% or more and less than 90%) | 5 (Herbicidal rate of 90% or more (almost completely withered)) | 0 (Herbicidal rate of 5% or less (almost no effect)) | 1 (Herbicidal rate of 5% or more and less than 20%) | 5 (Herbicidal rate of 90% or more (almost completely withered)) | 3 (Herbicidal rate of 40% or more and less than 70%) | 3 (Herbicidal rate of 40% or more and less than 70%) | 5 (Herbicidal rate of 90% or more (almost completely withered)) | 1 (Herbicidal rate of 5% or more and less than 20%) | 0 (Herbicidal rate of 5% or less (almost no effect)) | 5 (Herbicidal rate of 90% or more (almost completely withered)) | – |
| CCOc1cc(F)ccc1-c1sc2cc(Cl)ccc2c1-c1c(O)c(C)nn(C)c1=O [3-045] | 0 (Herbicidal rate of 5% or less (almost no effect)) | 4 (Herbicidal rate of 70% or more and less than 90%) | 5 (Herbicidal rate of 90% or more (almost completely withered)) | 0 (Herbicidal rate of 5% or less (almost no effect)) | 0 (Herbicidal rate of 5% or less (almost no effect)) | 5 (Herbicidal rate of 90% or more (almost completely withered)) | 5 (Herbicidal rate of 90% or more (almost completely withered)) | 4 (Herbicidal rate of 70% or more and less than 90%) | 2 (Herbicidal rate of 20% or more and less than 40%) | 0 (Herbicidal rate of 5% or less (almost no effect)) | 5 (Herbicidal rate of 90% or more (almost completely withered)) | 3 (Herbicidal rate of 40% or more and less than 70%) | 3 (Herbicidal rate of 40% or more and less than 70%) | 4 (Herbicidal rate of 70% or more and less than 90%) | 1 (Herbicidal rate of 5% or more and less than 20%) | 5 (Herbicidal rate of 90% or more (almost completely withered)) | 5 (Herbicidal rate of 90% or more (almost completely withered)) | – |
| CCCC(=O)Oc1c(C)nn(C)c(=O)c1-c1c(-c2ccccc2OC)sc2cc(C)ccc12 [3-050] | – | – | – | – | – | – | – | – | – | – | – | – | – | – | – | – | – | I: wild oat, herbicidal effect grade (wild oat; [14]): 0 (Herbicidal rate of 5% or less (almost no effect)); P: chickweed, herbicidal effect grade (chickweed [1]; [14]): 3 (Herbicidal rate of 40% or more and less than 70%); R: persian speedwell, herbicidal effect grade (persian speedwell [2]; 224 g/ha): 5 (Herbicidal rate of 90% or more (almost completely withered)); Herbicidal effect, C: oval-leafed pondweed (oval-leafed pondweed; [14]): 1 (Herbicidal rate of 5% or more and less than 20%); K: Italian ryegrass, herbicidal effect grade (Italian ryegrass [3]; 224 g/ha): 4 (Herbicidal rate of 70% or more and less than 90%); F: southern crabgrass, herbicidal effect grade (southern crabgrass [4]; [14]): 0 (Herbicidal rate of 5% or less (almost no effect)); H: barnyard grass, herbicidal effect grade (barnyard grass; [14]): 0 (Herbicidal rate of 5% or less (almost no effect)); O: lambsquarters, herbicidal effect grade (lambsquarters; [14]): 0 (Herbicidal rate of 5% or less (almost no effect)); herbicidal effect rating, B: Japanese bulrush (Japanese bulrush [5]; AAH 224 g/ha): 1 (Herbicidal rate of 5% or more and less than 20%); K: Italian ryegrass, herbicidal effect grade (Italian ryegrass [6]; [14]): 1 (Herbicidal rate of 5% or more and less than 20%); P: chickweed, herbicidal effect grade (chickweed [7]; 224 g/ha): 5 (Herbicidal rate of 90% or more (almost completely withered)); J: blackgrass, herbicidal effect grade (blackgrass [8]; [14]): 0 (Herbicidal rate of 5% or less (almost no effect)); R: persian speedwell, herbicidal effect grade (persian speedwell [9]; [14]): 1 (Herbicidal rate of 5% or more and less than 20%); J: blackgrass, herbicidal effect grade (blackgrass [10]; 224 g/ha): 4 (Herbicidal rate of 70% or more and less than 90%); Herbicidal effect, B: Japanese bulrush (Japanese bulrush [11]; [14]): 0 (Herbicidal rate of 5% or less (almost no effect)); F: southern crabgrass, herbicidal effect grade (southern crabgrass [12]; 224 g/ha): 4 (Herbicidal rate of 70% or more and less than 90%); herbicidal effect on rice flat sedge (E) (rice flat sedge; 224 g/ha): 3 (Herbicidal rate of 40% or more and less than 70%) |
